# Measurements taken from publication PMC8509831 (International Journal of Molecular Sciences, 2021).
# Like-named read-outs stand apart in the source and are kept apart here. Marks after values point to notes of the source that are not given here.
# Experiments:
# COX-2 = molecular target: T1, COX-2 (Homo sapiens, UniProt P35354); assay: COX-2 enzyme inhibitory assay (COX inhibitor screening kit); type: biochemical; conditions: mean ± SD, n = 3; read-out: Enzyme Inhibitory Effect IC50 COX-2 (converted)
# T1 construct: purchased Cayman Chemicals 560131
# T1 sequence (P35354 18-604): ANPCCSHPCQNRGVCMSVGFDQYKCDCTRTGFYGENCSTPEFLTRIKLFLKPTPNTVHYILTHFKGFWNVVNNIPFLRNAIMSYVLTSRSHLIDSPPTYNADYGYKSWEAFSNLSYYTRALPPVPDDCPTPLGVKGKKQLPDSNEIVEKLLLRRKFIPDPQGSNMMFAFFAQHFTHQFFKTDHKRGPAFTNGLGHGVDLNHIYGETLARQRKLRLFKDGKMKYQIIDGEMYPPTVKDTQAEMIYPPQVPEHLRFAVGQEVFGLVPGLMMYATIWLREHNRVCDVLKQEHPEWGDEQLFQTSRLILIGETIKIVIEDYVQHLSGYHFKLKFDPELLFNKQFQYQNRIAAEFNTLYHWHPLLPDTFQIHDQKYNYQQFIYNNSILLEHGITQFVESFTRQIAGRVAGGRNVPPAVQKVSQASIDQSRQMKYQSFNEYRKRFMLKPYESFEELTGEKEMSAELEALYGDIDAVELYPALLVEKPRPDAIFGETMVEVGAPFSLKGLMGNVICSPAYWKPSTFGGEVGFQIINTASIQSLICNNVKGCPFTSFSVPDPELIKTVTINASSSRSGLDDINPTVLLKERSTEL
# COX-1 = molecular target: T2, COX-1 (Ovis aries, UniProt P05979); assay: COX-1 enzyme inhibitory assay (COX inhibitor screening kit); type: biochemical
# T2 construct: purchased Cayman Chemicals 560131
# T2 sequence (P05979 25-600): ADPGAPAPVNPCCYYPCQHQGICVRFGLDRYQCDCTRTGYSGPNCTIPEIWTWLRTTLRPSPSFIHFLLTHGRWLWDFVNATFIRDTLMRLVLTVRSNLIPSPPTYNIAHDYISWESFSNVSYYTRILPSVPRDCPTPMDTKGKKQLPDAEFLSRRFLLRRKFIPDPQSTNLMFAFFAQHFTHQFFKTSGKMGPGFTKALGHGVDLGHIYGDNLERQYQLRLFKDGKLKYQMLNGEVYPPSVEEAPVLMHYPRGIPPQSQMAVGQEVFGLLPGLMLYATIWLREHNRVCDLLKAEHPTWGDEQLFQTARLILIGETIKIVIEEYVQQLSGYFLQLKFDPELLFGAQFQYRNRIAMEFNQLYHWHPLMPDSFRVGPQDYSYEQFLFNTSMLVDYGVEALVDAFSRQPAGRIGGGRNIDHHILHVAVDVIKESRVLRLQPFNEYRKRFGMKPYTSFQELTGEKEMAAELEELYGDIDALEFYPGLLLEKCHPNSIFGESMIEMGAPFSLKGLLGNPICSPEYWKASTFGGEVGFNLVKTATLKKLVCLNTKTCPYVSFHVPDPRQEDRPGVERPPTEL
# Bcl-2 = assay: Western blot, Bcl-2 expression; type: cell-based, human; conditions: HeLa, 30 μg/mL, 12, 24, and 48 h
# Protocol: (§1) HeLa cells (1.5 × 10^6 cells/well) were seeded in six-well plates and cultured in MEM supplemented with 10% FBS for 24 h. Subsequently, the cells were treated with the indicated amounts of Q3G or DMSO as a vehicle control for 12–48 h. Following this, the cells were collected, and total lysates from treated cells were prepared in RIPA buffer for 15 min. Protein concentration was determined using a Bio-Rad protein assay kit with BSA [63]. […] Membranes were treated with PBS containing 0.05% Tween 20 and 5% nonfat dry milk to block nonspecific binding at 15–25 °C and were incubated overnight at 4 °C with the following specific primary antibodies: caspase-9/-3, Bax, Bcl-2, Bid, CDK2, and MuD. β-Actin was used as an invariant control for equal loading of total proteins. After incubation with the primary antibody, the membranes were incubated with the appropriate secondary antibodies conjugated to horseradish peroxidase. Finally, immunoreactive bands were visualized using an enhanced chemiluminescence substrate (Bio-Rad).
# LOX-5 = assay: 5-LOX enzyme inhibitory assay (polarographic, Clark oxygen electrode); type: biochemical, potato; conditions: mean ± SD, n = 3
# Protocol: The IC50 was determined for the studied compounds and reference standards. […] Furthermore, 5-LOX enzyme was extracted from potato tubers as described previously. […] The enzyme activity was expressed as moles of oxygen consumed per min/mg protein, as 5-LOX adds oxygen to the substrate, implying that the rate of decrease of oxygen in the reaction mixture was intrinsic to the measurement of enzyme activity. The results were expressed as IC50 (μg/mL) for the sample and reference compounds in triplicate.
# MuD = assay: Western blot, MuD expression; type: cell-based, human; conditions: HeLa, 30 μg/mL, 12, 24, and 48 h
# Protocol: as §1
# CDK2 = assay: Western blot, CDK2 expression; type: cell-based, human; conditions: HeLa, 30 μg/mL, 12-48 h
# Protocol: as §1
# caspase-9 = assay: Western blot, caspase-9 expression; type: cell-based, human; conditions: HeLa, 30 μg/mL, 12, 24, and 48 h
# Protocol: as §1
# HeLa cells [1] = assay: WST cell viability assay; type: cell-based, human; conditions: for Cell Viability (%): HeLa, 40 μg/mL, listed as Q3G
# Protocol: (§2) The viability of HeLa cells treated with […] (0-100 μg/mL, concentrations) was examined for 24-72 h using a colorimetric WST assay. Briefly, HeLa cells were cultured in a clear-bottom 96-well plate at a density of 9 × 10^3 cells/well in MEM supplemented with 10% FBS and 1% penicillin-streptomycin in a 5% CO2 incubator and incubated for 24 h at 37 °C. The […] stock solution was prepared in DMSO and stored at -20 °C. Subsequently, the cells were exposed to various concentrations of […] (0-100 μg/mL) over a period of 24-72 h. The cell proliferation reagent WST-1 solution (10 μL/well) was added to the plates, followed by incubation in 5% CO2 for 2 h at 37 °C in the dark. Thereafter, the plates were shaken thoroughly for 1 min on a shaker at RT, and the absorbance of the reporter substrate was measured at 450 nm and 600 nm (reference wavelength 650 nm) using a microplate reader coupled with the Gen5 software (BioTek, Winooski, VT, USA).
# WST cell viability assay = type: cell-based, human; conditions: human, HeLa cells, HeLa
# Protocol: as §2
# HeLa cells [2] = assay: Annexin V-FITC/PI apoptosis assay by flow cytometry; type: cell-based, human
# Protocol: Annexin V-FITC/propidium iodide (PI) assay was performed as per the manufacturer's instructions (Sino Biological, Beijing, China). Briefly, HeLa cells (2 × 10^5 cells/well) in 6-well culture plates were treated with […] (30 μg/mL) or with DMSO as a vehicle control for 24 and 48 h. Subsequently, floating as well as adherent cells were collected and washed with PBS. The cells were centrifuged at 400× g for 5 min at RT and resuspended in binding buffer containing Annexin V-FITC, along with PI. In each experiment, 1 × 10^4 cells were analyzed for annexin V-FITC/PI staining after incubation for 20 min at RT in the dark.
# Bax = assay: Western blot, Bax expression; type: cell-based, human; conditions: HeLa, 30 μg/mL, 12, 24, and 48 h
# Protocol: as §1
# HeLa cells [3] = assay: Intracellular ROS production (DCFDA fluorescence); type: cell-based, human; conditions: 30 μg/mL
# Protocol: Cellular ROS production was analyzed as previously described with minor modifications to the original methodology. Briefly, cells were seeded at a density of 1.5 × 10^4/well in a black, clear bottom 96-well plate. The following day, cells were treated with […] (30 μg/mL) or DMSO as a vehicle control for 12-48 h. Forty-five minutes prior to completion of the treatment, 100 μL of 2× H2DCFDA dilution was overlayed in each well and incubated in 5% CO2 with DCFDA as well as the compounds for 30 min at 37 °C. The fluorescence in each well was assessed on a microplate reader at the end point in the presence of compounds and DCFDA with Ex/Em = 485/535 nm wavelengths.
# HeLa cells [4] = assay: Cell cycle analysis by PI flow cytometry; type: cell-based, human; conditions: 30 μg/mL, listed as Q3G
# Protocol: Cell cycle analysis was performed in HeLa cells as previously described. Cells were seeded into six-well plates at a density of 2 × 10^5 cells per well and treated with […] (30 μg/mL) for 12-48 h. Thereafter, the cells were harvested, washed with PBS, and fixed at 4 °C for 1 h in a 70% PBS-ethanol solution. Cells were subsequently washed twice with PBS, and 50 μL of a 100 μg/mL stock of DNase-free RNase was added to ensure that only DNA, not RNA, was stained. Cell pellets were stained with a fluorescent probe PI (50 μg/mL) and incubated at RT for 30 min, and then analyzed using a NovoCyte 1000 benchtop flow cytometer (ACEA Biosciences, San Diego, CA, USA).
# [5] = mean ± SD, n = 3, read-out: Enzyme Inhibitory Effect IC50 COX-1 (converted)
smiles,measurement,setting,value
O=c1c(O)c(-c2ccc(O)c(O)c2)oc2cc(O)cc(O)c12 [Quercetin],IC50,COX-2,37.4 µM
same,IC50,COX-1; [5],20.2 µM
"O=c1c(O[C@@H]2O[C@H](CO)[C@@H](O)[C@H](O)[C@H]2O)c(-c2ccc(O)c(O)c2)oc2cc(O)cc(O)c12 [Quercetin-3-glucoside, quercetin 3-β-D-glucoside]",level of anti-apoptotic protein Bcl-2,Bcl-2,reduced
same,IC50,COX-1,7.8 µM
same,Enzyme Inhibitory Effect IC50 LOX-5,LOX-5,2.31 ± 0.32 ^b μg/mL
same,MuD expression,MuD,markedly reduced
same,protein expression of CDK2,CDK2,decreasing
same,"expression of the initiator caspase, caspase-9",caspase-9,reduced
same,concentrations with significant growth inhibition,"HeLa cells [1]; HeLa cells, 48 h",higher than 10 µg/mL
same,Cell Viability (%),HeLa cells [1]; 24 h,83.30 ± 4.05%
same,Cell Viability (%),HeLa cells [1]; 48 h,36.27 ± 1.38%
same,Cell Viability (%),HeLa cells [1]; 72 h,17.97 ± 1.42%
same,"viability at 48 h, 0.1 μg/mL","WST cell viability assay; 0.1 μg/mL, 48 h",114.98 ± 0.05%
same,"viability at 48 h, 1 μg/mL","WST cell viability assay; 1 μg/mL, 48 h",103.3 ± 0.12%
same,"viability at 48 h, 10 μg/mL","WST cell viability assay; 10 μg/mL, 48 h",116.1 ± 0.01%
same,"viability at 24 h, 40 μg/mL","WST cell viability assay; 40 μg/mL, 24 h",83%
same,"viability at 48 h, 40 μg/mL","WST cell viability assay; 40 μg/mL, 48 h",36%
same,"viability at 72 h, 40 μg/mL","WST cell viability assay; 40 μg/mL, 72 h",18%
same,"viability at 48 h, 50 μg/mL","WST cell viability assay; 50 μg/mL, 48 h",29.6%
same,"viability at 48 h, 100 μg/mL","WST cell viability assay; 100 μg/mL, 48 h",41.81 ± 0.01%
same,cells in early apoptosis,"HeLa cells [2]; 30 μg/mL, 48 h",Approximately 20%
same,cells in the late apoptosis phase,"HeLa cells [2]; 30 μg/mL, 48 h",~35%
same,difference in apoptosis (early and late phase) compared with the control cells,HeLa cells [2]; 24 h of treatment,No significant difference
same,increase in the number of apoptotic cells (Annexin V-positive cells),HeLa cells [2]; after 48 h compared to after 24 h of treatment,16–22%
same,level of Bax,Bax,increase
same,ROS level higher than the control group,HeLa cells [3]; 12 h,approximately 6 fold
same,ROS level higher than the control group,HeLa cells [3]; 24 h,~12 fold
same,cells in S phase,HeLa cells [4]; 24 h,~56%
same,cells in S phase,HeLa cells [4]; 48 h,~63%
O=C(CCc1ccc(O)cc1)c1c(O)cc(O)cc1O [Phloretin],IC50,COX-2,121 µM
same,IC50,COX-1; [5],91.7 µM
same,Enzyme Inhibitory Effect IC50 LOX-5,LOX-5,16.86 ± 1.22 ^h μg/mL
O=C(CCc1ccc(O)cc1)c1c(O)cc(O)cc1O[C@@H]1O[C@H](CO)[C@@H](O)[C@H](O)[C@H]1O [Phloridzin],IC50,COX-2,83 µM
same,IC50,COX-1; [5],65.6 µM
same,Enzyme Inhibitory Effect IC50 LOX-5,LOX-5,18.98 ± 0.85 ^i μg/mL
O=C(O)/C=C/c1ccc(O)cc1 [Coumaric acid],IC50,COX-2,93.2 µM
same,IC50,COX-1; [5],55.4 µM
same,Enzyme Inhibitory Effect IC50 LOX-5,LOX-5,7.96 ± 0.76 ^d μg/mL
Oc1cc(O)c2c(c1)O[C@H](c1ccc(O)c(O)c1)[C@H](O)C2 [Epicatechin],IC50,COX-1,63 µM
same,Enzyme Inhibitory Effect IC50 LOX-5,LOX-5,10.09 ± 1.03 ^f μg/mL
O=C(/C=C/c1ccc(O)c(O)c1)O[C@@H]1C[C@](O)(C(=O)O)C[C@@H](O)[C@H]1O [Chlorogenic acid],IC50,COX-2,75.3 µM
same,IC50,COX-1; [5],39.7 µM
same,Enzyme Inhibitory Effect IC50 LOX-5,LOX-5,9.98 ± 0.94 ^e μg/mL
O=C(O)/C=C/c1ccc(O)c(O)c1 [Caffeic acid],IC50,COX-1; [5],113 µM
same,Enzyme Inhibitory Effect IC50 LOX-5,LOX-5,12.26 ± 0.91 ^g μg/mL
